Test results published in ChEMBL document CHEMBL1201862, “PubChem BioAssay data set” (2004).
Values belong to the molecule of their own block, whether it stands above or below them. Activity calls are given as the source filed them.

Columns and labels:
[1] = test system: INS1; experiment: INS-1E survival protection against cytokine death – cell-based, luminescence, retest, dose response (AID 449756); type: functional; settings: Rattus norvegicus;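 also: cell death triggered by IL-1 beta plus TNF-alpha plus IFN-gamma mixture; protective hits raise ATP signal compared with cytokine alone wells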
[2] = target: T1, Hexokinase HKDC1 (Homo sapiens, UniProt Q2TB90); experiment: inhibition of HKDC1 glucose phosphorylation – biochemical, W721R variant, dose response (AID 504729); type: functional
T1 sequence (Q2TB90 whole entry): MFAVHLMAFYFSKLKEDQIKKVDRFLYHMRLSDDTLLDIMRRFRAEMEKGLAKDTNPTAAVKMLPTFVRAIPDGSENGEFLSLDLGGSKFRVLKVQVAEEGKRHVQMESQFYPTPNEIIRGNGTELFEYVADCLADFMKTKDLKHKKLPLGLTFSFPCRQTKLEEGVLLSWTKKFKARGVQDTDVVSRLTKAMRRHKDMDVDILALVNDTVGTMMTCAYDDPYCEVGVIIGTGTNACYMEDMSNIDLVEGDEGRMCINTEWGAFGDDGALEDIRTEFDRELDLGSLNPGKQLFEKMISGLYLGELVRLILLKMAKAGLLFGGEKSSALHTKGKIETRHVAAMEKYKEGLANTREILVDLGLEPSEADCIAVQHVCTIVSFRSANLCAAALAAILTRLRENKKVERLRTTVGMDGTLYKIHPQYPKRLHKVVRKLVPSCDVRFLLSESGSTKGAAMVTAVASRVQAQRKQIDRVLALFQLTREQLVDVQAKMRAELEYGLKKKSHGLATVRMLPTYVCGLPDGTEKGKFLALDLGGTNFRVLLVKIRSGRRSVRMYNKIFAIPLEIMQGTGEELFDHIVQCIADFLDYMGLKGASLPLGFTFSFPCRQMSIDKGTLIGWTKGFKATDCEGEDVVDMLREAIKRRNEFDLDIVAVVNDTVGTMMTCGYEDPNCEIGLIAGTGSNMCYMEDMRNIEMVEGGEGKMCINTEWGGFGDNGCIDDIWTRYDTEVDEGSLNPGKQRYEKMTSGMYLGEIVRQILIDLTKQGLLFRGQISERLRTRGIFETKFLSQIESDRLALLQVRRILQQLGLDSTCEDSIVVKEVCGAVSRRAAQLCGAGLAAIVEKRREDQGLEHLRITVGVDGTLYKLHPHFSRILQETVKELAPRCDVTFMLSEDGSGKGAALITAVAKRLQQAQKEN

[3] = target: Dual specificity tyrosine-phosphorylation-regulated kinase 1A (Rattus norvegicus, UniProt Q63470); type: biochemical, Homo sapiens
[4] = target: Calcium/calmodulin-dependent protein kinase type II subunit delta (Homo sapiens, UniProt Q13557); type: functional
[5] = target: Macrophage colony-stimulating factor 1 receptor (Homo sapiens, UniProt P07333); type: functional;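 also: value comes from the Navigating the Kinome screening panel, CSF1R member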
[6] = target: Tyrosine-protein kinase Srms (Homo sapiens, UniProt Q9H3Y6); type: functional;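 also: SRMS measured as one member of a kinome-wide kinase profiling panel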
[7] = target: Casein kinase I isoform gamma-1 (Homo sapiens, UniProt Q9HCP0); type: functional;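 also: measured as the CSNK1G1 member of a kinome profiling panel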
[8] = target: Interleukin-1 receptor-associated kinase 1 (Homo sapiens, UniProt P51617); type: functional;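 also: IRAK1 tested as one member of a kinome panel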
[9] = target: Protein kinase C zeta type (Homo sapiens, UniProt Q05513); type: functional;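 also: measured as one member of a broad kinase profiling panel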
[10] = target: Serine/threonine-protein kinase MRCK alpha (Homo sapiens, UniProt Q5VT25); type: functional
[11] = target: Serine/threonine-protein kinase D3 (Homo sapiens, UniProt O94806); type: functional;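 also: determined within a kinase panel screen, with PRKCN as the panel member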
[12] = target: Mitogen-activated protein kinase 9 (Homo sapiens, UniProt P45984); type: functional;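 also: value from a kinome panel profiling assay, MAPK9 panel entry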
[13] = target: Lymphokine-activated killer T-cell-originated protein kinase (Homo sapiens, UniProt Q96KB5); type: functional;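 also: value comes from a kinase panel screen in which TOPK was one of the panel members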
[14] = target: Serine/threonine-protein kinase 3 (Homo sapiens, UniProt Q13188); type: functional;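 also: measured as one member of a kinome-wide kinase panel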
[15] = target: MAP kinase-activated protein kinase 2 (Homo sapiens, UniProt P49137); type: functional;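 also: measured as one member of a kinome-wide kinase panel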
[16] = target: Serine/threonine-protein kinase Chk2 (Homo sapiens, UniProt O96017); type: functional;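 also: CHEK2 entry within a kinome-wide screening panel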
[17] = target: Tyrosine-protein kinase Lck (Homo sapiens, UniProt P06239); type: functional;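 also: lck was assayed as one member of a kinase panel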
[18] = target: Serine/threonine-protein kinase DCLK1 (Homo sapiens, UniProt O15075); type: functional;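 also: affinity for DCLK1 (listed as DCAMKL1) measured as one member of a kinome-wide kinase profiling panel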
[19] = target: Testis-specific serine/threonine-protein kinase 2 (Homo sapiens, UniProt Q96PF2); type: functional;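 also: part of the Navigating the Kinome panel, target entry STK22B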
[20] = target: Cyclin-dependent kinase 5 (Homo sapiens, UniProt Q00535); type: functional;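 also: CDK5 measured as one member of a kinase profiling panel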
[21] = target: Phosphorylase b kinase gamma catalytic chain, liver/testis isoform (Homo sapiens, UniProt P15735); type: functional;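 also: PHKG2 measured as one member of a kinome-wide kinase panel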
[22] = target: BDNF/NT-3 growth factors receptor (Homo sapiens, UniProt Q16620); type: functional;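 also: NTRK2 measured as one member of a broad kinome-wide kinase profiling panel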
[23] = target: Interleukin-1 receptor-associated kinase 4 (Homo sapiens, UniProt Q9NWZ3); type: functional
[24] = target: Leucine-rich repeat serine/threonine-protein kinase 2 (Homo sapiens, UniProt Q5S007); type: functional;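 also: value from a broad kinome-wide panel profiling study in which LRRK2 was one of the kinases tested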
[25] = target: Mitogen-activated protein kinase 13 (Homo sapiens, UniProt O15264); type: functional
[26] = target: Calcium/calmodulin-dependent protein kinase type II subunit gamma (Homo sapiens, UniProt Q13555); type: functional
[27] = target: Serine/threonine-protein kinase pim-3 (Homo sapiens, UniProt Q86V86); type: functional;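 also: value obtained as one member of a broad kinase panel profiling effort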
[28] = target: Perilipin-1/ABHD5 (Homo sapiens, UniProt O60240+Q8WTS1); experiment: Luminescence-based biochemical high throughput dose response assay for inhibitors of the interaction of the lipase co-activator protein, abhydrolase domain containing 5 (ABHD5) with perilipin-1 (PLIN1) (2K validation set). [Related pubchem assays (depositor defined):AID493027, AID493057]
[29] = test system: Staphylococcus aureus; experiment: Inhibitors of Bacterial Quorum Sensing Structure Activity Relationship (SAR) Analysis: Dose Response Assay. [Related pubchem assays: 700, 527 ]; type: functional, organism-based
[30] = rise of 4N DNA cells, HeLa – IC50, dose response (AID 1117351); type: functional, cell-based
[31] = CellTiter-Glo luminescence survival assay, SW480 colon tumor line, concentration-response curve, half-maximal inhibitory concentration (AID 1117338); type: functional
[32] = NIH-3T3 fibroblast cytotoxicity, dose response, cytotoxicity control, cell-based, fluorescence, Alamar Blue, secondary assay (AID 2327); type: functional;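 also: NIH-3T3 mouse fibroblasts cultured with fluconazole at 8 µg/mL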
[33] = Reduced DLD-1 viability, concentration-response, CellTiter-Glo luminescence (AID 1117352); type: functional

Macrophage colony-stimulating factor 1 receptor, sequence (P07333 whole entry): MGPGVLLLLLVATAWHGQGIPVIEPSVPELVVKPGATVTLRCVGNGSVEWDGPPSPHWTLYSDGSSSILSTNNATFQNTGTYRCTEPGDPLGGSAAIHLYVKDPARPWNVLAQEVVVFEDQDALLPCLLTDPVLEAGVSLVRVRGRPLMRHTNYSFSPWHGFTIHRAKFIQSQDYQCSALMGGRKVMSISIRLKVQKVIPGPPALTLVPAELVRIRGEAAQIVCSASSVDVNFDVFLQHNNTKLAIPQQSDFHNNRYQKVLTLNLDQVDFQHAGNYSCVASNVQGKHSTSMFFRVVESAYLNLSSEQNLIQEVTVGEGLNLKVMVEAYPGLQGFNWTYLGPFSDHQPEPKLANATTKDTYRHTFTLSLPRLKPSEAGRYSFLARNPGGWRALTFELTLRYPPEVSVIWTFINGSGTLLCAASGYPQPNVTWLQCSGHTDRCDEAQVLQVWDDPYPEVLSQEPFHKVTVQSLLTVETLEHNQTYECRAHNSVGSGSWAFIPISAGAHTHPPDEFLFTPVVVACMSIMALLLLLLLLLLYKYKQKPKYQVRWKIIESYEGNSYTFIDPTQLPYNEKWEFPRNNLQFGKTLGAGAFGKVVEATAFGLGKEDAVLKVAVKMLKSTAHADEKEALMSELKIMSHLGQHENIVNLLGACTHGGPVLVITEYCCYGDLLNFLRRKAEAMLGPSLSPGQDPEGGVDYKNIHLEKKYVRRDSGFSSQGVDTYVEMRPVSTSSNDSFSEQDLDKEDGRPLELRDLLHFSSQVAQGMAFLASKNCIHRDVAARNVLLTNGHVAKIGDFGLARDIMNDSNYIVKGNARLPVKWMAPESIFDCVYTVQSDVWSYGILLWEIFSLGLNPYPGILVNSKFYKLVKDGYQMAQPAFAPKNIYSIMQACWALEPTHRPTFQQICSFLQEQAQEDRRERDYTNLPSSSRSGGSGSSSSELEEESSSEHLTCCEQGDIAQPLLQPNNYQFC
Lymphokine-activated killer T-cell-originated protein kinase, sequence (Q96KB5 whole entry): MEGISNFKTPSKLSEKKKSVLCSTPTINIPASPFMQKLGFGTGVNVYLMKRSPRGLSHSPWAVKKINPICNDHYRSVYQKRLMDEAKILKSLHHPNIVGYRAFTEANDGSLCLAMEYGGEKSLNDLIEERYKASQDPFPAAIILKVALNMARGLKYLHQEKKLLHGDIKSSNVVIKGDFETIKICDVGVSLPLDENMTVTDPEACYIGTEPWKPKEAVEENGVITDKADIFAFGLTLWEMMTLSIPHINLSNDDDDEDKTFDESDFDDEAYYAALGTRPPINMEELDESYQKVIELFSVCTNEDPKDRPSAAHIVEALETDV
MAP kinase-activated protein kinase 2, sequence (P49137 whole entry): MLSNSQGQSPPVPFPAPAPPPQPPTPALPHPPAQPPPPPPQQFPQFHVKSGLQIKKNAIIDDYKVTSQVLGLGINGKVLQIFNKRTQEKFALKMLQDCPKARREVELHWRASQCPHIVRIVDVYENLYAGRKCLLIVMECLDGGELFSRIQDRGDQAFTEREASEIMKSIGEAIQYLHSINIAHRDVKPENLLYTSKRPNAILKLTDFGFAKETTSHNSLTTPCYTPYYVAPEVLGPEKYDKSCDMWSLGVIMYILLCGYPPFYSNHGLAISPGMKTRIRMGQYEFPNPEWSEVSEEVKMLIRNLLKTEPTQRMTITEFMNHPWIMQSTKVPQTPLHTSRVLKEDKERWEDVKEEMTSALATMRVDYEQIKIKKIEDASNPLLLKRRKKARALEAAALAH
Calcium/calmodulin-dependent protein kinase type II subunit gamma, sequence (Q13555 whole entry): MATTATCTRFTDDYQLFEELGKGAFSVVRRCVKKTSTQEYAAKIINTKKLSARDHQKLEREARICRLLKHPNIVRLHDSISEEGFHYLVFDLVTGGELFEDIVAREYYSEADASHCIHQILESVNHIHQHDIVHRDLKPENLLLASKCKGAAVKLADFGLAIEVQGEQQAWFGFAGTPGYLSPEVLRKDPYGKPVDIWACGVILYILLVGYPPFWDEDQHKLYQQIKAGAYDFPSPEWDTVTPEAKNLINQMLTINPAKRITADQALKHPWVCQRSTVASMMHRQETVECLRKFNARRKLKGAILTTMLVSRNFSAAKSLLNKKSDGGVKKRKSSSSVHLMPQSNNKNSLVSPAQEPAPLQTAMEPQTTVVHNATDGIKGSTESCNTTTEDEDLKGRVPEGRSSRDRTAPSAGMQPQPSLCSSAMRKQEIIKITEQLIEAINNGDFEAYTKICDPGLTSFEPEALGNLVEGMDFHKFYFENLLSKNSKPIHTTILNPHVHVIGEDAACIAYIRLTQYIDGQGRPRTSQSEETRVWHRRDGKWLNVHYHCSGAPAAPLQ
BDNF/NT-3 growth factors receptor, sequence (Q16620 whole entry): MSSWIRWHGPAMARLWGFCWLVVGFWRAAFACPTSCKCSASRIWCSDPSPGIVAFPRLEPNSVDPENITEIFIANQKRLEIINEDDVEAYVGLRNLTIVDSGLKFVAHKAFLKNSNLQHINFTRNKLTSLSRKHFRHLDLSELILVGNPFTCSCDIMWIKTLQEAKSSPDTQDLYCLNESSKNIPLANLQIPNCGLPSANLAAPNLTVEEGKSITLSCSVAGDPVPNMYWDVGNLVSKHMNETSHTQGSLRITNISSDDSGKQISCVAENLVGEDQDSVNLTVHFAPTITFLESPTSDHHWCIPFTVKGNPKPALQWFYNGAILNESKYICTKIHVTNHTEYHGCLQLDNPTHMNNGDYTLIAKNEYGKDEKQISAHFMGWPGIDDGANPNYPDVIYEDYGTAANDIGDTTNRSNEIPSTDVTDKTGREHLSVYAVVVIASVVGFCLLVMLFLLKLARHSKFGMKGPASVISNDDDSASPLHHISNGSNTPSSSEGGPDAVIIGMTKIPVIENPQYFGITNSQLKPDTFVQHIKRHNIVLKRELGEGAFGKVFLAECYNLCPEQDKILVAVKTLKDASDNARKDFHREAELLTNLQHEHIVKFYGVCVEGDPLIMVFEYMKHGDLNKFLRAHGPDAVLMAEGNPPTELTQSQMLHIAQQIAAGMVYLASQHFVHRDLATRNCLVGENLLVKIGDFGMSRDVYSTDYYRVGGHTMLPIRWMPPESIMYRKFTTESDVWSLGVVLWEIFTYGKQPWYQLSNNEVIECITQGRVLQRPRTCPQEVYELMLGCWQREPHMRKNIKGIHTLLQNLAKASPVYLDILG
Serine/threonine-protein kinase MRCK alpha, sequence (Q5VT25 whole entry): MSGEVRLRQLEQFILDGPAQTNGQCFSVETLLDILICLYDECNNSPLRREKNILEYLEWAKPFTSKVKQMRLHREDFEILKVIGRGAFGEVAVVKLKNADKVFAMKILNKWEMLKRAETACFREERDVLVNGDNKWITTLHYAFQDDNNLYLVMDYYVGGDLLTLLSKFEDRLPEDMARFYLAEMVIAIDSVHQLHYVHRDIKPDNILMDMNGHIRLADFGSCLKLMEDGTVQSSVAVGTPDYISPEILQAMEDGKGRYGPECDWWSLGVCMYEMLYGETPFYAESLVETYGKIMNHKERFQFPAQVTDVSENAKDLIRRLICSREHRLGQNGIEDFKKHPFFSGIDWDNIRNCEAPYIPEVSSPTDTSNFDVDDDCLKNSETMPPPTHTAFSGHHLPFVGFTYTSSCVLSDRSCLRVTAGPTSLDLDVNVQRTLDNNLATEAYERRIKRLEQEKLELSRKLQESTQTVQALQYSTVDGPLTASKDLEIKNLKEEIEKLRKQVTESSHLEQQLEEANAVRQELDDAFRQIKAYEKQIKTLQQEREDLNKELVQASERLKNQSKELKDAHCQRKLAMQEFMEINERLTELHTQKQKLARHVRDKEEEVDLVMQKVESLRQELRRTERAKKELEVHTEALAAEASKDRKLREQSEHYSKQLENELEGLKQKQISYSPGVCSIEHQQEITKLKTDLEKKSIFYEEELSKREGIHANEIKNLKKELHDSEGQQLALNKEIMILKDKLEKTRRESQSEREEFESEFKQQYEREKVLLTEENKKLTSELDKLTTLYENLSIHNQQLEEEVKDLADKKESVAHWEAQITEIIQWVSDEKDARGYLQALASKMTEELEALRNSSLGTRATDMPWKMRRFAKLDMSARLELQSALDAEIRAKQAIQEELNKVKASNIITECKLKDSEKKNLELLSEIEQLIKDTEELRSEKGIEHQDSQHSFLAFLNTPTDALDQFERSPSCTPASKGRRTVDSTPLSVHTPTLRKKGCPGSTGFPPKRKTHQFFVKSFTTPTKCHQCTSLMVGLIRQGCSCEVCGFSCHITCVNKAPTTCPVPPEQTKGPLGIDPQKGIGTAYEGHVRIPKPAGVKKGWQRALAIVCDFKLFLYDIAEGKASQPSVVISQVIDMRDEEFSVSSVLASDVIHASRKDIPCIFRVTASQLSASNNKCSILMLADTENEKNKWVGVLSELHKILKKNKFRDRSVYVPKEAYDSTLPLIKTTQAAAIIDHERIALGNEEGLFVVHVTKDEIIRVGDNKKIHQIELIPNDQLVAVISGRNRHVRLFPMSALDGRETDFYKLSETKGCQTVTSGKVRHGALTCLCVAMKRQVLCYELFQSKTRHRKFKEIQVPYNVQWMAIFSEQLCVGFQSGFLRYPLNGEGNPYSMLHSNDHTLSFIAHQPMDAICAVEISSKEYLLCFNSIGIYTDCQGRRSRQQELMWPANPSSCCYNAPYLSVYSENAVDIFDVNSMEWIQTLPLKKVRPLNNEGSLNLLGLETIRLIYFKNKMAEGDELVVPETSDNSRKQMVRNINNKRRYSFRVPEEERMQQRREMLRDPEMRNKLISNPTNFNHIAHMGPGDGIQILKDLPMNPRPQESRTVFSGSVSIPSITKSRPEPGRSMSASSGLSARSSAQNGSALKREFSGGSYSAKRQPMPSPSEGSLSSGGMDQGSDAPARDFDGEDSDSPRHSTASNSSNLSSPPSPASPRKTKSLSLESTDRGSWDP

Compound: O=C1C=C(N2CCOCC2)c2ccccc2C1=O
AC50 [1]: 4.72 µM (active) | IC50 [2]: 1.02 µM (active) | AC50 [3]: 5.14 µM (active)

Ki [4]: > 6.31 µM (inactive) | Ki [5]: > 2.51 µM (inactive) | Ki [6]: > 1.58 µM (inactive) | Ki [7]: > 6.31 µM (inactive) | Ki [8]: > 7.94 µM (inactive) | Ki [9]: > 7.94 µM (inactive) | Ki [10]: > 10 µM (inactive) | Ki [11]: > 5.01 µM (inactive) | Ki [12]: > 3.98 µM (inactive) | Ki [14]: > 7.94 µM (inactive) | Ki [15]: > 7.94 µM (inactive) | Ki [16]: > 1.58 µM (inactive) | Ki [17]: > 5.01 µM (inactive) | Ki [18]: > 10 µM (inactive) | Ki [19]: > 1.58 µM (inactive) | Ki [20]: 0.398 µM (active) | Ki [21]: > 5.01 µM (inactive) | Ki [22]: > 3.98 µM (inactive) | Ki [23]: > 10 µM (inactive) | Ki [24]: > 2.51 µM (inactive) | Ki [25]: > 7.94 µM (inactive) | Ki [26]: 5.01 µM (active) | Ki [27]: 3.98 µM (active)
Compound: N#Cc1ccc2[nH]c(O)c(-c3ccc(CN4CCOCC4)cn3)c2c1 [AZD-1080]
Ki [13]: > 10 µM (inactive)

Compound: CCc1oc2ccccc2c1C(=O)c1cc(Br)c(O)c(Br)c1 [BENZBROMARONE]
IC50 [28]: 15 µM (inactive) | IC50 [29]: 0.131 µM (active) | IC50 [30]: > 10 µM (inactive) | IC50 [31]: 1.74 µM (active) | EC50 [32]: > 160 µM (inactive) | IC50 [33]: 0.268 µM (active)
